Laboratory results as given in patent US20250213571A1, “TYK2 INHIBITORS AND USES THEREOF” (Alumis Inc., priority 2022, published 2025).
Structures can show the parent of a compound that is named as a salt.

Columns and labels:
[1] = target: human TYK2 (JH2domain-pseudokinase) (Homo sapiens (Human), UniProt P29597); experiment: TYK2 JH2 domain binding assay (KINOMEscan)
Protocol: Binding constants for the compounds described herein against the JH2 domain were determined by the following protocol for a KINOMEscan® assay (DiscoveRx). A fusion protein of a partial length construct of human TYK2 (JH2domain-pseudokinase) (amino acids G556 to D888 based on reference sequence NP_003322.3) and the DNA binding domain of NFkB was expressed in transiently transfected HEK293 cells. From these HEK 293 cells, extracts were prepared in M-PER extraction buffer (Pierce) in the presence of Protease Inhibitor Cocktail Complete (Roche) and Phosphatase Inhibitor Cocktail Set II (Merck) per manufacturers' instructions. The TYK2 (JH2domain-pseudokinase) fusion protein was labeled with a chimeric double-stranded DNA tag containing the NFkB binding site fused to an amplicon for qPCR readout, which was added directly to the expression extract (the final concentration of DNA-tag in the binding reaction is 0.1 nM).
Streptavidin-coated magnetic beads (Dynal M280) were treated with a biotinylated small molecule ligand for 30 minutes at room temperature to generate affinity resins the binding assays. The liganded beads were blocked with excess biotin and washed with blocking buffer (SeaBlock (Pierce), 1% BSA, 0.05% Tween 20, 1 mM DTT) to remove unbound ligand and to reduce nonspecific binding.
The binding reaction was assembled by combining 16 μl of DNA-tagged kinase extract, 3.8 μl liganded affinity beads, and 0.18 μl test compound (PBS/0.05% Tween 20/10 mM DTT/0.1% BSA/2 μg/ml sonicated salmon sperm DNA)]. Extracts were used directly in binding assays without any enzyme purification steps at a ≥10,000-fold overall stock dilution (final DNA-tagged enzyme concentration <0.1 nM). Extracts were loaded with DNA-tag and diluted into the binding reaction in a two-step process. First extracts were diluted 1:100 in 1×binding buffer (PBS/0.05% Tween 20/10 mM DTT/0.1% BSA/2 […] sonicated salmon sperm DNA) containing 10 nM DNA-tag. This dilution was allowed to equilibrate at room temperature for 15 minutes and then subsequently diluted 1:100 in 1× binding buffer. Test compounds were prepared as 111× stocks in 100% DMSO. Kds were determined using an 11-point 3-fold compound dilution series with three DMSO control points. All compounds for Kd measurements were distributed by acoustic transfer (non-contact dispensing) in 100% DMSO. The compounds were then diluted directly into the assays such that the final concentration of DMSO was 0.9%. All reactions were performed in polypropylene 384-well plates. Each was a final volume of 0.02 mL. Assays were incubated with shaking for 1 hour at room temperature. Then the beads were pelleted and washed with wash buffer (1×PBS, 0.05% Tween 20) to remove displaced kinase and test compound. The washed based were resuspended in elution buffer (1 λPBS, 0.05% Tween […] non-biotinylated affinity ligand) and incubated at room temperature with shaking for 30 minutes. The kinase concentration in the eluates was measured by qPCR. qPCR reactions were assembled by adding 2.5 μL of kinase eluate to 7.5 μL of qPCR master mix containing […] amplicon primers and 0.15 μM amplicon probe. The qPCR protocol consisted of a 10 minute hot start at 95° C., followed by 35 cycles of 95° C. for 15 seconds, 60° C. for 1 minute.
Test compounds were prepared as 111× stocks in 100% DMSO. Kds were determined using an 11-point 3-fold compound dilution series with three DMSO control points. All compounds for Kd measurements were distributed by acoustic transfer (non-contact dispensing) in 100% DMSO. The compounds were then diluted directly into the assays such that the final concentration of DMSO was 0.9%. The Kds were determined using a compound top concentration of 30,000 nM. Kd measurements were performed in duplicate.
Binding constants (Kds) were calculated with a standard dose-response curve using the Hill equation: […]
The Hill Slope was set to −1. […]

[2] = target: JAK1 JH2 (Homo sapiens (Human), UniProt P23458); experiment: JAK1 JH2 binding (Kd, Table 2); conditions: JH2 domain
[3] = target: TYK2 JH1 (Homo sapiens (Human), UniProt P29597); experiment: TYK2 JH1 binding (Kd, Table 2); conditions: JH1 domain
Chain of TYK2 JH1 (P29597 897-1176): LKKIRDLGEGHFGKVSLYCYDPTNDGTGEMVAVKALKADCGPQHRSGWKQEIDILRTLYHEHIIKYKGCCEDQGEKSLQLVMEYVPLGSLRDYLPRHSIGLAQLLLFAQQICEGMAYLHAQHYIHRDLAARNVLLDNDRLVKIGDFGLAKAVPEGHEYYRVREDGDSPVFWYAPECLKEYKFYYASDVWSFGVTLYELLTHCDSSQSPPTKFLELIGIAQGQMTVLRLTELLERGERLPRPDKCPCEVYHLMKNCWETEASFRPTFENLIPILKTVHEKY

Chain of human TYK2 (JH2domain-pseudokinase) (P29597 556-888): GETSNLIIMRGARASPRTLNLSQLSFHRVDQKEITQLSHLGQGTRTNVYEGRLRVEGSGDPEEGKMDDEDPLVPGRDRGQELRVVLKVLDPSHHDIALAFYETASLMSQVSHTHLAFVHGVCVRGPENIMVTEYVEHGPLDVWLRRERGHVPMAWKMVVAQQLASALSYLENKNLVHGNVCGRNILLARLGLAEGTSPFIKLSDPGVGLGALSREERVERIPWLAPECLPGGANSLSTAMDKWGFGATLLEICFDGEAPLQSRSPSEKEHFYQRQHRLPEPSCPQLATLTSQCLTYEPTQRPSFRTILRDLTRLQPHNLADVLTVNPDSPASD
Chain of JAK1 JH2 (P23458 583-855): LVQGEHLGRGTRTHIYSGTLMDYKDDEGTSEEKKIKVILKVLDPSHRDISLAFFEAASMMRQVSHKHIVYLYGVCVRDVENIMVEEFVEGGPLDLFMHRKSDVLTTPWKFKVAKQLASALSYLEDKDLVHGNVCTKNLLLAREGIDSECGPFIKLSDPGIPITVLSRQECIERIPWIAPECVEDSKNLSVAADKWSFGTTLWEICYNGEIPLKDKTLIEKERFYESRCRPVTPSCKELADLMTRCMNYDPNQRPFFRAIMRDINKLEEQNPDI

Compound | Kd [1] | Kd [2] | Kd [3]
CNc1cc2nn3c(cnc13)C(=O)N[C@H](C)COc1nccc3ccc(cc13)N2 [Compound 62] | < 10 nM | – | –
CNc1nc2nc3c(nn(C)c13)C(=O)N[C@H](C)COCc1cc(c3nnn(C)c3c1)N2 [Compound 65] | < 10 nM | – | –
CNc1cc2nc3c(cnn13)C(=O)N[C@H](CO)[C@@H](C)OCc1cc(c3nnn(C)c3c1)N2 [Compound 15] | < 10 nM | 1000 to 10000 nM | ≥ 30000 nM
CNc1cc2nc3c(cnn13)C(=O)NC(C(F)(F)F)COCc1cc(c3nnn(C)c3c1)N2 (stereo not drawn) [Compound 92] | < 10 nM | 10000 to 30000 nM | ≥ 30000 nM
CNc1cc2nn3c(cnc13)C(=O)N[C@H](C)COc1cncc3ccc(cc13)N2 [Compound 68] | < 10 nM | – | –
CNc1cc2nc3c(cnn13)C(=O)N[C@H](CO)COCc1cc(c3nnn(C)c3c1)N2 [Compound 91] | < 10 nM | 1000 to 10000 nM | 10 to 1000 nM
CNc1cc2nn3c(cnc13)C(=O)N[C@H](C)COCc1cc(c3cnn(C)c3c1)N2 [Compound 12, (7R,E)-3^1,7-Dimethyl-1^8-(methylamino)-3^1H-5-oxa-2,8-diaza-1(6,3)-imidazo[1,2-b]pyridazina-3(4,6)-indazolacyclononaphan-9-one] | < 10 nM | 10 to 1000 nM | 1000 to 10000 nM
CNc1cc2nn3c(cnc13)C(=O)N[C@H](C)COCc1cc(cc3[nH]ncc13)N2 [Compound 96, (14R)-14-methyl-21-(methylamino)-12-oxa-2,6,7,15,19,23,24-heptaazapentacyclo[15.5.2.1^(3,10.0^(5,9.0^(20,24]pentacosa-1(23),3(25),4,7,9,17,19,21-octaen-16-one hydrochloride] | < 10 nM | 10 to 1000 nM | 1000 to 10000 nM
C[C@@H]1COCc2cc(c3nnn(C)c3c2)Nc2cn3c(cnc3cn2)C(=O)N1 [Compound 77] | 1000 to 10000 nM | – | –
CNc1cc2nn3c(cnc13)C(=O)N[C@H](C)CNc1ccnc3ccc(cc13)N2 [Compound 61, (12R)-12-methyl-24-(methylamino)-2,4,5,7,11,14,18-heptaazapentacyclo[13.6.2.2^{3,6}0.^{5,9}0.^{19,23}]pentacosa-1(21),3,6,8,15,17,19,22,24-nonaen-10-one] | < 10 nM | – | –
(R,1^3E,1^4E)-3′,7-Dimethyl-1^7-(methylamino)-3^1H-5-oxa-2,8-diaza-1(5,3)-pyrazolo[1,5-a]pyrimidina-3(7,5)-indazolacyclononaphan-9-one [Compound 13] | < 10 nM | 10000 to 30000 nM | 1000 to 10000 nM
CNc1cc2nc3c(cnn13)C(=O)N[C@H](C)COCc1cc(c3c(c1)ncn3C)N2 [Compound 9, (R,1^3E,1^4E)-3^1,7-Dimethyl-1^7-(methylamino)-3^1H-5-oxa-2,8-diaza-1(5,3)-pyrazolo[1,5-a]pyrimidina-3(7,5)-benzo[d]imidazolacyclononaphan-9-one] | < 10 nM | 1000 to 10000 nM | ≥ 30000 nM
C[C@@H]1COCc2cc(c3nnn(C)c3c2)Nc2ccc3ncc(n3c2)C(=O)N1 [Compound 71] | 10 to 1000 nM | – | –
CNc1nc2cn3c(cnc13)C(=O)N[C@H](C)COCc1cc(c3nnn(C)c3c1)N2 [Compound 76] | 1000 to 10000 nM | – | –
CNc1cc2nc3c(cnn13)C(=O)N[C@H](C)COCc1cc(c3cnn(C)c3c1)N2 [Compound 52] | < 10 nM | 1000 to 10000 nM | 10000 to 30000 nM
CNc1cc2nc3c(cnn13)C(=O)N[C@H](C)[C@H](C)OCc1cc(c3nnn(C)c3c1)N2 [Compound 38] | < 10 nM | 1000 to 10000 nM | ≥ 30000 nM
CNc1cc2nn3c(cnc13)C(=O)N[C@H](C)C[S+]([O-])Cc1cc(c3nnn(C)c3c1)N2 (stereo partly drawn) [Compound 58] | < 10 nM | – | –
CNc1cc2nc3c(cnn13)C(=O)O[C@H](C)COCc1cc(c3nnn(C)c3c1)N2 [Compound 4, (R,1^3E,1^4E)-3^1,7-dimethyl-1^7-(methylamino)-3^1H-5,8-dioxa-2-aza-1(5,3),3(4,6)-dipyrazolo [1,5-a]pyrimidinacyclononaphan-9-one] | < 10 nM | 1000 to 10000 nM | ≥ 30000 nM
CNc1cc2nn3c(cnc13)C(=O)N[C@H](C)COc1cccc3ccc(nc13)N2 [Compound 69] | < 10 nM | – | –

Compound | Kd [1] | Kd [2] | Kd [3]
CNc1cc2nn3c(cnc13)C(=O)N[C@H](C)COc1cnnc3ccc(cc13)N2 [Compound 80] | ≥ 30000 nM | ≥ 30000 nM | ≥ 30000 nM
CNc1cc2nn3c(cnc13)C(=O)N[C@H](C)COc1ccnc3ccc(cc13)N2 [Compound 60] | < 10 nM | 10 to 1000 nM | 10000 to 30000 nM
CNc1cc2nn3c(cnc13)C(=O)N[C@H](C)COCc1cc(cc3cn[nH]c13)N2 [Compound 98] | < 10 nM | 10 to 1000 nM | 10 to 1000 nM
CNc1cc2nc3c(cnn13)C(=O)N[C@H](C)COCc1cc(c3cn(C)nc3c1)N2 [Compound 53] | < 10 nM | 10 to 1000 nM | 10000 to 30000 nM
CNc1cc2nn3c(cnc13)C(=O)N[C@H](C)COCc1cc(c3nn(C)cc3c1)N2 [Compound 36] | < 10 nM | 10 to 1000 nM | 1000 to 10000 nM
CNc1cc2nc3c(cnn13)C(=O)N[C@H](C)COCc1cc(c3nn(C)cc3c1)N2 [Compound 35] | < 10 nM | 10 to 1000 nM | ≥ 30000 nM
CNc1cc2nn3c(cnc13)C(=O)N[C@H](C)COc1ncnc3cc(OC)c(cc13)N2 [Compound 56] | < 10 nM | – | –
CNc1cc2nc3c(cnn13)C(=O)N[C@H](C(C)(C)O)COCc1cc(c3nnn(C)c3c1)N2 [Compound 16] | < 10 nM | ≥ 30000 nM | ≥ 30000 nM
CNc1cc2nn3c(cnc13)C(=O)N[C@H](C)COc1cccc3ncc(cc13)N2 [Compound 64] | < 10 nM | – | –
Cc1nc2ccc3nn2c1C(=O)N[C@H](C)COCc1cc(c2nnn(C)c2c1)N3 [Compound 67] | < 10 nM | – | –
CNc1cc2nn3c(cnc13)C(=O)N[C@H](C)CSCc1cc(c3nnn(C)c3c1)N2 [Compound 55] | < 10 nM | – | –
CNc1cc2nn3c(cnc13)C(=O)N[C@H](C)COCc1cc(cn3ccnc13)N2 [Compound 99, (14R)-14-methyl-21-(methylamino)-12-oxa-2,5,8,15,19,23,24-heptaazapentacyclo[15.5.2.1^(3,10.0^(5,9.0^(20,24]pentacosa-1(23),3,6,8,10(25),17,19,21-octaen-16-one hydrochloride] | < 10 nM | – | –
CNc1cc2nn3c(cnc13)C(=O)N[C@H](C)COc1ccnc3cnc(cc13)N2 [Compound 63, (12R)-12-methyl-24-(methylamino)-14-oxa-2,4,5,7,11,18,21-heptaazapentacyclo[13.6.2.2^(3,6.0^(5,9.0^(19,23]pentacosa-1(22),3,6,8,15,17,19(23),20,24-nonaen-10-one hydrochloride] | < 10 nM | – | –
CNc1nc2nc3c(n(C)nc13)C(=O)N[C@H](C)COCc1cc(c3nnn(C)c3c1)N2 [Compound 70] | < 10 nM | – | –
CNc1nc2nc3c(n[nH]c13)C(=O)N[C@H](C)COCc1cc(c3nnn(C)c3c1)N2 [Compound 59] | < 10 nM | – | –
CNc1cc2nn3c(cnc13)C(=O)N[C@H](C)CS(=O)(=O)Cc1cc(c3nnn(C)c3c1)N2 [Compound 57] | < 10 nM | – | –
Cc1nc2ccc3cn2c1C(=O)N[C@H](C)COCc1cc(c2nnn(C)c2c1)N3 [Compound 75] | 10 to 1000 nM | – | –
C[C@@H]1COCc2cc(c3nnn(C)c3c2)Nc2ccn3ncc(c3n2)C(=O)N1 [Compound 54] | < 10 nM | – | –
CNc1cc2nn3c(cnc13)C(=O)N[C@H](C)CNc1ncnc3ccc(cc13)N2 [Compound 66] | < 10 nM | – | –
